Measurements published in patent publication US20090118332A1, “Therapeutic Agents - 551” (AstraZeneca AB, priority 2006, published 2009).

Molecular target: T1, human Fatty Acid Synthase (Homo sapiens, UniProt P49327)
T1 construct: made in house
Experiment: Human FAS enzyme assay (decrease in NADPH fluorescence)
Assay type: biochemical
Conditions: for inhibition at 100 µM: % inhibition at a concentration of 100 μmolar
Summary of the method: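 In-house human FAS was preincubated with compound and NADPH for 15 min at room temperature in 0.1 M Tris pH 7.5 with EDTA, glutathione and BSA. Malonyl CoA and acetyl CoA (500 μM and 150 μM in the added mix) were then added for 60 min. IC50 came from time-zero-subtracted NADPH fluorescence (340/460 nm).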

T1 sequence (P49327 whole entry): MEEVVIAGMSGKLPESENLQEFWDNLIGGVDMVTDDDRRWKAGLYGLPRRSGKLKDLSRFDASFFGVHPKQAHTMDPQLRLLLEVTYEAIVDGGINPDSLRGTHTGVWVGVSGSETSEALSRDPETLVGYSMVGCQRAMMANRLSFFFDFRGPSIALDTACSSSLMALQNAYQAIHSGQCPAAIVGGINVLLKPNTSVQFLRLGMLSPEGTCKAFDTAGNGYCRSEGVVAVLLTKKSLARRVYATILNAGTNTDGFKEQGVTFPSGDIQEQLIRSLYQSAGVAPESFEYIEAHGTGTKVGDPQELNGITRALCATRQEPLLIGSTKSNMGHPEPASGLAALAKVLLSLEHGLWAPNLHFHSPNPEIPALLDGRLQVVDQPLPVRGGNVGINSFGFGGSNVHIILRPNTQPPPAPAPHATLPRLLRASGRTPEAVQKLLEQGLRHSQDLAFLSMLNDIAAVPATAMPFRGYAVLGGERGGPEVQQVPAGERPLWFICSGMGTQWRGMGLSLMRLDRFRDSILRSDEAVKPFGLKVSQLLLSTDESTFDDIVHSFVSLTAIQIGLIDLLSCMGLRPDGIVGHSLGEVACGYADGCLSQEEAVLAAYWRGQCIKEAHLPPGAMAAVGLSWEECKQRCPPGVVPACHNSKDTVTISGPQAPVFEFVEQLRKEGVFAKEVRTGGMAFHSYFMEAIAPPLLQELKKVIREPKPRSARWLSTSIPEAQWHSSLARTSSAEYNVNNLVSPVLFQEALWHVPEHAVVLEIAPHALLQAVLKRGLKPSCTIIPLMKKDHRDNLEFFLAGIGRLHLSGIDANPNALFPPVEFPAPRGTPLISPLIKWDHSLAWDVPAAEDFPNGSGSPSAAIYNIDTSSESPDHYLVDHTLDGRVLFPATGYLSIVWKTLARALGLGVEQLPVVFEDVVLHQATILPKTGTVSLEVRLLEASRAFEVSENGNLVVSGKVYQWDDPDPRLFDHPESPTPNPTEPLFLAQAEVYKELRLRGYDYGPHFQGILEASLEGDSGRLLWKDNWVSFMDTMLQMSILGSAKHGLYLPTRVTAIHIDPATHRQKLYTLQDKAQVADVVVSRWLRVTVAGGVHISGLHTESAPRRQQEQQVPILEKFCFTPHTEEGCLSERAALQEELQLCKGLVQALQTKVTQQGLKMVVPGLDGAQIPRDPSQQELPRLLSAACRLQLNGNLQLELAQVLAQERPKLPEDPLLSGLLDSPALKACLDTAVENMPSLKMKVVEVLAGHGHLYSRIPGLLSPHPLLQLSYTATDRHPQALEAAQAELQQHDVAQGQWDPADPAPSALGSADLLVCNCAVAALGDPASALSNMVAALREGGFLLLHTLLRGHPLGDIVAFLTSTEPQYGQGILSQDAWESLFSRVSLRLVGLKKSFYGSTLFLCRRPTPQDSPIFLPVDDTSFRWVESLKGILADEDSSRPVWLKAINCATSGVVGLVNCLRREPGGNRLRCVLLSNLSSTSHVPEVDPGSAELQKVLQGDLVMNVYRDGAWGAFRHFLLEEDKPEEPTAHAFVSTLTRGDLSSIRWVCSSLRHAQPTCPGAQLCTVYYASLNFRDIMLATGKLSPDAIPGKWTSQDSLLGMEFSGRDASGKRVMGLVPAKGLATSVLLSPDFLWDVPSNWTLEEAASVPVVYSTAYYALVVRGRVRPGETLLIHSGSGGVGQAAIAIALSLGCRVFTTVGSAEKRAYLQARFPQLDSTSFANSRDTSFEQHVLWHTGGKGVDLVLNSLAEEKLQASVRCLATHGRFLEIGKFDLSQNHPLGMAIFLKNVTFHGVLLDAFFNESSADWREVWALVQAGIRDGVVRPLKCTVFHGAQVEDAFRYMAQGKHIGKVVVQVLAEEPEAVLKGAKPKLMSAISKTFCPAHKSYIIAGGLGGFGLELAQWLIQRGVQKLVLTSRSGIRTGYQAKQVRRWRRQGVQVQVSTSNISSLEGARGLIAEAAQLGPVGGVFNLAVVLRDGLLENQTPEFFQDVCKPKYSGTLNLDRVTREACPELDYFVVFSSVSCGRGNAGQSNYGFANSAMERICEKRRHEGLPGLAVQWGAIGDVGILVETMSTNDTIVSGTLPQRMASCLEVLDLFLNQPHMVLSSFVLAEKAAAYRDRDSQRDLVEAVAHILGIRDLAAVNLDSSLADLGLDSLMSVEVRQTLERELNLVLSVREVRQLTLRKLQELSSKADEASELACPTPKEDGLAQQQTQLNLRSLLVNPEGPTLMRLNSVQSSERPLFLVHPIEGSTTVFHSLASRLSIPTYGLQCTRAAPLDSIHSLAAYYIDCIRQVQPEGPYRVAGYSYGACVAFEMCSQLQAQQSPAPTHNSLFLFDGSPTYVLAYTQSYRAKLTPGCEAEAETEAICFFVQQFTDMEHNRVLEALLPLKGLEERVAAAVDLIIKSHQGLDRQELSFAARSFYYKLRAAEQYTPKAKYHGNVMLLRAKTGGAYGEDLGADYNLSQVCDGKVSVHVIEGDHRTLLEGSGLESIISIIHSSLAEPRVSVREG

| Structure (SMILES) | inhibition at 100 µM [%] | IC50, inhibition of human Fatty Acid Synthase (FAS enzyme assay, IC50 from fitted sigmoid curves) |
| --- | --- | --- |
| Cc1ccc(C(=O)N2CCC(c3ccc(C#N)cc3)CC2)cc1NC(=O)N[C@@H](CCS(C)(=O)=O)C(=O)OC(C)(C)C [Example 180, tert-butyl (2S)-2-[[5-[4-(4-cyanophenyl)piperidine-1-carbonyl]-2-methyl-phenyl]carbamoylamino]-4-methylsulfonyl-butanoate] | 92 | – |
| Cc1ccc(C(=O)N2CCC(c3ccc(C#N)cc3)CC2)cc1NC(=O)NCc1ccncc1 [Example 36, 1-[5-[4-(4-cyanophenyl)piperidine-1-carbonyl]-2-methyl-phenyl]-3-(pyridin-4-ylmethyl)urea] | 93.8 | – |
| Cc1ccc(C(=O)N2CCC(c3ccc(C#N)cc3)CC2)cc1NC(=O)NCCNC(=O)C(C)C [Example 112, N-[2-[[5-[4-(4-cyanophenyl)piperidine-1-carbonyl]-2-methyl-phenyl]carbamoylamino]ethyl]-2-methyl-propanamide] | 94.3 | – |
| Cc1ccc(C(=O)N2CCC(c3ccc(C#N)cc3)CC2)cc1NC(=O)NC(C)(C)C [Example 31, 1-[5-[4-(4-cyanophenyl)piperidine-1-carbonyl]-2-methyl-phenyl]-3-tert-butyl-urea] | 83.3 | – |
| Cc1ccc(C(=O)N2CCC(c3ccc(C#N)cc3)CC2)cc1NC(=O)NCCN(C)S(C)(=O)=O [Example 121, 1-[5-[4-(4-cyanophenyl)piperidine-1-carbonyl]-2-methyl-phenyl]-3-[2-(methyl-methylsulfonyl-amino)ethyl]urea] | 86 | – |
| Cc1ccc(C(=O)N2CCC(c3ccc(C#N)cc3)CC2)cc1NC(=O)NC1CN2CCC1CC2 (stereo in doubt) [Example 270, 3-[(8S)-1-azabicyclo[2.2.2]oct-8-yl]-1-[5-[4-(4-cyanophenyl)piperidine-1-carbonyl]-2-methyl-phenyl]urea] | 89.4 | – |
| Cc1ccc(C(=O)N2CCC(c3ccc(C#N)cc3)CC2)cc1NC(=O)NCC1CCOCC1 [Example 17, 1-[5-[4-(4-cyanophenyl)piperidine-1-carbonyl]-2-methyl-phenyl]-3-(oxan-4-ylmethyl)urea] | 90.1 | – |
| Cc1ccc(C(=O)N2CCC(c3ccc(C#N)cc3)CC2)cc1NC(=O)NCCN1CCCC1=O [Example 176, 1-[5-[4-(4-cyanophenyl)piperidine-1-carbonyl]-2-methyl-phenyl]-3-[2-(2-oxopyrrolidin-1-yl)ethyl]urea] | 92.6 | – |
| CC(C)NC(=O)Nc1ccc(S(C)(=O)=O)c(C(=O)N2CCC(c3ccc(C#N)cc3)CC2)c1 [3-[3-[4-(4-cyanophenyl)piperidine-1-carbonyl]-4-methylsulfonylphenyl]-1-propan-2-ylurea] | – | do not have IC50s in the range of about 0.001 μM to about 30 μM |
| Cc1ccc(C(=O)N2CCC(O)(c3ccc(Br)cc3)CC2)cc1NC(=O)NCc1ccccc1 [Example 40, 3-benzyl-1-[5-[4-(4-bromophenyl)-4-hydroxy-piperidine-1-carbonyl]-2-methyl-phenyl]urea] | 71.5 | – |
| Cc1cc(C)c(C(=O)N2CCC(c3ccc(C#N)cc3)CC2)cc1NC(=O)NC(C)C [Example 13, 3-[5-[4-(4-cyanophenyl)piperidine-1-carbonyl]-2,4-dimethyl-phenyl]-1-propan-2-yl-urea] | 84.8 | – |
| Cc1ccc(C(=O)N2CCC(c3ccc(C#N)cc3)CC2)cc1NC(=O)NCCc1cccnc1 [Example 66, 1-[5-[4-(4-cyanophenyl)piperidine-1-carbonyl]-2-methyl-phenyl]-3-(2-pyridin-3-ylethyl)urea] | 91.5 | – |
| Cc1ccc(NC(=O)N[C@H]2CC[C@H](O)CC2)cc1C(=O)N1CCC(c2ccc(C#N)cc2)CC1 [Example 49, 1-[3-[4-(4-cyanophenyl)piperidine-1-carbonyl]-4-methyl-phenyl]-3-trans-(4-hydroxycyclohexyl)urea] | 98.1 | – |
| Cc1ccc(NC(=O)N2CCOCC2)cc1C(=O)N1CCC(c2ccc(C#N)cc2)CC1 [Example 28, N-[3-[4-(4-cyanophenyl)piperidine-1-carbonyl]-4-methyl-phenyl]morpholine-4-carboxamide] | 83.1 | – |
| Cc1ccc(C(=O)N2CCC(c3ccc(C#N)cc3)CC2)cc1NC(=O)NC1CCN(C)CC1 [Example 148, 1-[5-[4-(4-cyanophenyl)piperidine-1-carbonyl]-2-methyl-phenyl]-3-(1-methyl-4-piperidyl)urea] | 79.5 | – |
| CC(C)NC(=O)Nc1cccc(C(=O)N2CCC(c3ccc(C#N)cc3)CC2)c1 [Example 46, 3-[3-[4-(4-cyanophenyl)piperidine-1-carbonyl]phenyl]-1-propan-2-yl-urea] | 90.3 | – |

The next lines start with results.

| inhibition at 100 µM [%] | Structure (SMILES) | IC50, inhibition of human Fatty Acid Synthase (FAS enzyme assay, IC50 from fitted sigmoid curves) |
| --- | --- | --- |
| 91.5 | Cc1ccc(C(=O)N2CCC(c3ccc(C#N)cc3)CC2)cc1NC(=O)NCCNC(N)=O [Example 234, 3-[2-(carbamoylamino)ethyl]-1-[5-[4-(4-cyanophenyl)piperidine-1-carbonyl]-2-methyl-phenyl]urea] | – |
| 89.8 | Cc1ccc(C(=O)N2CCC(c3ccc(C#N)cc3)CC2)cc1NC(=O)NCCN(C)S(=O)(=O)C(C)C [Example 214, 1-[5-[4-(4-cyanophenyl)piperidine-1-carbonyl]-2-methyl-phenyl]-3-[2-(methyl-propan-2-ylsulfonyl-amino)ethyl]urea] | – |
| 75.6 | CC(=O)N(C)CCNC(=O)Nc1cc(C(=O)N2CCC(c3ccc(F)cc3)CC2)ccc1C [Example 352, N-[2-[[5-[4-(4-fluorophenyl)piperidine-1-carbonyl]-2-methyl-phenyl]carbamoylamino]ethyl]-N-methyl-acetamide] | – |
| 96.6 | Cc1ccc(C(=O)N2CCC(c3ccc(C#N)cc3)CC2)cc1NC(=O)NC1CN(C(=O)C(C)C)C1 [Example 301, 1-[5-[4-(4-cyanophenyl)piperidine-1-carbonyl]-2-methyl-phenyl]-3-[1-(2-methylpropanoyl)azetidin-3-yl]urea] | – |
| 79 | Cc1ccc(C(=O)N2CCC(c3ccc(C#N)cc3)CC2)cc1NC(=O)NCC(C)(C)NC(=O)C(C)C [Example 263, N-[1-[[5-[4-(4-cyanophenyl)piperidine-1-carbonyl]-2-methyl-phenyl]carbamoylamino]-2-methyl-propan-2-yl]-2-methyl-propanamide] | – |
| 84.5 | CC(=O)N1CCC(NC(=O)Nc2cc(C(=O)N3CCC(c4ccc(F)cc4)CC3)ccc2C)C1 (stereo not shown) [Example 348, 3-(1-acetylpyrrolidin-3-yl)-1-[5-[4-(4-fluorophenyl)piperidine-1-carbonyl]-2-methyl-phenyl]urea] | – |
| 106 | Cc1ccc(C(=O)N2CCC(c3ccc(C#N)cc3)CC2)cc1NC(=O)NC[C@@H](NC(=O)OC(C)(C)C)C(=O)O [Example 370, (2R)-3-[[5-[4-(4-cyanophenyl)piperidine-1-carbonyl]-2-methylphenyl]carbamoylamino]-2-[(2-methylpropan-2-yl)oxycarbonylamino]propanoic acid] | – |
| 89.9 | COCCNC(=O)Nc1cc(C(=O)N2CCC(c3ccc(C#N)cc3)CC2)c(C)cc1C [Example 412, 1-[5-[4-(4-cyanophenyl)piperidine-1-carbonyl]-2,4-dimethylphenyl]-3-(2-methoxyethyl)urea] | – |
| 78.8 | Cc1ccc(C(=O)N2CCC(c3ccc(C#N)cc3)CC2)cc1NC(=O)N[C@@H]1CCCC[C@H]1N (relative stereo) [Example 305, 3-[(trans)-2-aminocyclohexyl]-1-[5-[4-(4-cyanophenyl)piperidine-1-carbonyl]-2-methyl-phenyl]urea] | – |
| 101 | C#CCNC(=O)Nc1cc(C(=O)N2CCC(c3ccc(C#N)cc3)CC2)c(C)cc1C [Example 413, 1-[5-[4-(4-cyanophenyl)piperidine-1-carbonyl]-2,4-dimethylphenyl]-3-prop-2-ynylurea] | – |
| 104 | Cc1ccc(C(=O)N2CCC(c3ccc(C#N)cc3)CC2)cc1NC(=O)NCCCC(=O)O [Example 407, 4-[[5-[4-(4-cyanophenyl)piperidine-1-carbonyl]-2-methylphenyl]carbamoylamino]butanoic acid] | – |
| 94.3 | Cc1cc(CNC(=O)Nc2cc(C(=O)N3CCC(c4ccc(C#N)cc4)CC3)ccc2C)on1 [Example 245, 1-[5-[4-(4-cyanophenyl)piperidine-1-carbonyl]-2-methyl-phenyl]-3-[(3-methyl-1,2-oxazol-5-yl)methyl]urea] | – |
| 62.9 | Cc1ccc(C(=O)N2CCC(c3ccc(C#N)cc3)CC2)cc1NC(=O)N(C)C1CCOCC1 [Example 396, 3-[5-[4-(4-cyanophenyl)piperidine-1-carbonyl]-2-methylphenyl]-1-methyl-1-(oxan-4-yl)urea] | – |
| 77.4 | Cc1ccc(C(=O)N2CCC(c3ccc(C#N)cc3)CC2)cc1NC(=O)NC(C)(C)CN [Example 260, 3-(1-amino-2-methyl-propan-2-yl)-1-[5-[4-(4-cyanophenyl)piperidine-1-carbonyl]-2-methyl-phenyl]urea] | – |
| 89.6 | Cc1ccc(C(=O)N2CCC(c3ccc(C#N)cc3)CC2)cc1NC(=O)NCc1ncccn1 [Example 291, 1-[5-[4-(4-cyanophenyl)piperidine-1-carbonyl]-2-methyl-phenyl]-3-(pyrimidin-2-ylmethyl)urea] | – |
| 84.2 | Cc1cccc(CNC(=O)Nc2cc(C(=O)N3CCC(c4ccc(C#N)cc4)CC3)ccc2C)n1 [Example 249, 1-[5-[4-(4-cyanophenyl)piperidine-1-carbonyl]-2-methyl-phenyl]-3-[(6-methylpyridin-2-yl)methyl]urea] | – |
| 102 | Cc1ccc(C(=O)N2CCC(c3ccc(C#N)cc3)CC2)cc1NC(=O)N[C@H]1CCN(S(C)(=O)=O)C1 [Example 221, 1-[5-[4-(4-cyanophenyl)piperidine-1-carbonyl]-2-methyl-phenyl]-3-[(3S)-1-methylsulfonylpyrrolidin-3-yl]urea] | – |
| 91.8 | Cc1ccc(C(=O)N2CCC(c3ccc(C#N)cc3)CC2)cc1NC(=O)NCCCc1cn[nH]c1C [Example 200, 1-[5-[4-(4-cyanophenyl)piperidine-1-carbonyl]-2-methyl-phenyl]-3-[3-(3-methyl-2H-pyrazol-4-yl)propyl]urea] | – |
